Measurements from US9260429B2, “Pyrido[3,4-B]indoles and methods of use” (Medivation Technologies, Inc., priority 2008, dated 2016).

Key:
[1] = target: T1, human recombinant dopamine D2L receptor (Homo sapiens, UniProt P14416); experiment: Dopamine D2L radioligand binding ([3H]Spiperone); conditions: 2 h, 1 μM ligand conc.; read-out: Percent Inhibition of ligand binding Dopamine (1 μM ligand conc.) D2L
T1 construct: expressed in transfected cells; host or cells: CHO cells
Protocol: To evaluate in radioligand binding assays the activity of compounds of the invention, human recombinant dopamine D2L receptor expressed in Chinese hamster ovary (CHO) cells (Grandy, D. K. et al. Proc. Natl. Acad. Sci. USA. 86:9762, 1989; Hayes, G. et al., Mol. Endocrinol. 6:920, 1992) in a modified Tris-HCl buffer (50 mM Tris-HCl, pH 7.4, 1.4 mM Ascorbic Acid, 0.001% BSA, 150 mM NaCl) was used. Compounds of the invention were incubated with 0.16 nM [^3H]Spiperone for 120 minutes at 25° C. Non-specific binding was estimated in the presence of […] Haloperidol. Receptor proteins were filtered and washed, the filters were then counted to determine [^3H]Spiperone specifically bound. Compounds were screened at 1 μM or lower, using 1% DMSO as vehicle. Biochemical assay results are presented as the percent inhibition of specific binding in Table 4.

[2] = target: T2, human recombinant adrenergic α2A receptor (Homo sapiens, UniProt P08913); experiment: Adrenergic α2A radioligand binding ([3H]MK-912); conditions: 1 h; read-out: Percent Inhibition of ligand binding Adrenergic (1 μM ligand conc.) α2A
T2 construct: expressed in transfected cells; host or cells: insect Sf9 cells
T2 sequence (P08913 1-465): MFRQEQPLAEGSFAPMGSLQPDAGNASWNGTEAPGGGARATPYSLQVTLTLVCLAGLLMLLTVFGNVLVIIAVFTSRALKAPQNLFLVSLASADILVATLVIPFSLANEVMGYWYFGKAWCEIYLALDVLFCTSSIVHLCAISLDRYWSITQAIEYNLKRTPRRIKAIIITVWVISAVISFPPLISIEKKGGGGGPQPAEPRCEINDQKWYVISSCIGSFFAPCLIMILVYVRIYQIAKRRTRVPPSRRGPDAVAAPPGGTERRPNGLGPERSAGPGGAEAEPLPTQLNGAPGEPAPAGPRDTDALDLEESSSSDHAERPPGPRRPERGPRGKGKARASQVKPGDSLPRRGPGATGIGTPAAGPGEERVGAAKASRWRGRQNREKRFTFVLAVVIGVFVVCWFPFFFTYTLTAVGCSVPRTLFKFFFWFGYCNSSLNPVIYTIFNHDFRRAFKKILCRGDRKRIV
Protocol: To evaluate in radioligand binding assays the activity of compounds of the invention, human recombinant adrenergic α2A receptor expressed in insect Sf9 cells (Uhlen S et al. J Pharmacol Exp Ther. 271:1558, 1994) in a modified Tris-HCl buffer (50 mM Tris-HCl, pH 7.4, 12.5 mM MgCl2, 2 mM EDTA) was used. Compounds of invention were incubated with 1 nM [^3H]MK-912 for 60 minutes at 25° C. MK912 is (2S-trans)-1,3,4,5′,6,6′,7,12b-octahydro-1′,3′-dimethyl-spiro[2H-benzofuro[2,3-a]quinolizine-2,4′(1′H)-pyrimidin]-2′(3′H)-one hydrochloride Non-specific binding was estimated in the presence of 10 μM WB-4101 (2-(2,6-Dimethoxyphenoxyethyl)aminomethyl-1,4-benzodioxane hydrochloride). Receptor proteins were filtered and washed, the filters were then counted to determine [^3H]MK-912 specifically bound. Compounds were screened at 1 μM or lower, using 1% DMSO as vehicle. Biochemical assay results are presented as the percent inhibition of specific binding in Table 4.

[3] = target: T3, human recombinant adrenergic α2B receptor (Homo sapiens, UniProt P18089); experiment: Adrenergic α2B radioligand binding ([3H]Rauwolscine); conditions: 1 h; read-out: Percent Inhibition of ligand binding Adrenergic (1 μM ligand conc.) α2B
T3 construct: expressed in transfected cells; host or cells: CHO-K1 cells
T3 sequence (P18089 1-450): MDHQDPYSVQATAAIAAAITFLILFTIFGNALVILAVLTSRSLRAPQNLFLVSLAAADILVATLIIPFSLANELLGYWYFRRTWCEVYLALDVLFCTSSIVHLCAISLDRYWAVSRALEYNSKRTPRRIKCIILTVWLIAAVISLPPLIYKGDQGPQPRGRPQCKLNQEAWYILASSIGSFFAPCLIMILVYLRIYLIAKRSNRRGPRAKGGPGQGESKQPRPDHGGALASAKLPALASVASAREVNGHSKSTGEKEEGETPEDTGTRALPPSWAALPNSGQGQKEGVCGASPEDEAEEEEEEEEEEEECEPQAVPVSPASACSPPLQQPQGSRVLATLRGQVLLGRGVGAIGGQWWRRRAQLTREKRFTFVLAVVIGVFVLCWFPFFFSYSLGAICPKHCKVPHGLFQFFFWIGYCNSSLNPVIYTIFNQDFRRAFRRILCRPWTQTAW
Protocol: To evaluate in radioligand binding assays the activity of compounds of the invention, human recombinant adrenergic α2B receptor expressed in Chinese hamster ovary (CHO-K1) cells (Uhlen S et al. Eur J. Pharmacol. 343(1):93, 1998) in a modified Tris-HCl buffer (50 mM Tris-HCl, pH 7.4, 12.5 mM MgCl2, 1 mM EDTA, 0.2% BSA) was used. Compounds of the invention were incubated with 2.5 nM [^3H]Rauwolscine for 60 minutes at 25° C. Non-specific binding was estimated in the presence of 10 μM Prozosin. Receptor proteins were filtered and washed, the filters were then counted to determine [^3H]Rauwolscine specifically bound. Compounds were screened at 1 μM or lower, using 1% DMSO as vehicle. Biochemical assay results are presented as the percent inhibition of specific binding in Table 4.

T1 sequence (P14416 whole entry): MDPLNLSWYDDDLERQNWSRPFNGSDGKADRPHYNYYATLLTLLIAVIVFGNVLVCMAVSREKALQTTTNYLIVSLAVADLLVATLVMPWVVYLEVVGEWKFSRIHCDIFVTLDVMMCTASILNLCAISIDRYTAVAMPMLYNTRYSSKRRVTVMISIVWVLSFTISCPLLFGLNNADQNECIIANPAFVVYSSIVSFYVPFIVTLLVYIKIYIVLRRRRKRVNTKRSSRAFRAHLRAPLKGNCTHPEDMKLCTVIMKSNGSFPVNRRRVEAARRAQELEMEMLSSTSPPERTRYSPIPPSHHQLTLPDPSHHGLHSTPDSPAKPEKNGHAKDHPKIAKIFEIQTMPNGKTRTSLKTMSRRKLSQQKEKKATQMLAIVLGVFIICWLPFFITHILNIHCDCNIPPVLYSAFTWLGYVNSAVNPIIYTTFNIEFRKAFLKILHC

| SMILES | inhibition at 1 µM [1] [%] | inhibition at 1 µM [2] [%] | inhibition at 1 µM [3] [%] |
| --- | --- | --- | --- |
| C/C(=C\n1c2c(c3cc(Cl)ccc31)CCN(C)C2C)c1ccccc1F (stereo not drawn) [Compound 168] | 9 | 74 | 82 |
| COC(=O)Cn1c2c(c3cc(Cl)ccc31)CCN(C)C2 [Compound 54, methyl 2-(6-chloro-2-methyl-3,4-dihydro-1H-pyrido[3,4-b]indol-9(2H)-yl)acetate] | -16 | 4 | 18 |
| CN1CCc2c(n(CCC3CCCC3)c3ccc(Cl)cc23)C1 [Compound 35, 6-chloro-9-(2-cyclopentylethyl)-2,3,4,9-tetrahydro-2-methyl-1H-pyrido[3,4-b]indole] | 3 | 88 | 65 |
| CN1CCc2c(n(CC(C)(O)c3ccc(F)cc3)c3ccc(Cl)cc23)C1 (stereo not drawn) [Compound 62, 1-(6-chloro-2-methyl-3,4-dihydro-1H-pyrido[3,4-b]indol-9(2H)-yl)-2-(4-fluorophenyl)propan-2-ol] | 81 | 90 | 102 |
| CC1c2c(c3cc(Cl)ccc3n2C#Cc2ccc(F)cc2)CCN1C (stereo not drawn) [Compound 128] | 14 | 81 | 94 |
| CN1CCc2c(n(CC(=O)O)c3ccc(Cl)cc23)C1 [Compound 52, 2-(6-chloro-1,2,3,4-tetrahydro-2-methylpyrido[3,4-b]indol-9-yl)acetic acid] | 1 | 4 | 9 |
| CN1CCc2c(n(CC(=O)N(C)C3CCCCC3)c3ccc(Cl)cc23)C1 [Compound 18, 2-(6-chloro-1,2,3,4-tetrahydro-2-methylpyrido[3,4-b]indol-9-yl)-N-cyclohexyl-N-methylacetamide] | 0 | 4 | 19 |
| C/C(=C\n1c2c(c3cc(C)ccc31)CCN(C)C2C)c1ccc(Cl)cc1 (stereo not drawn) [Compound 161, 9-(2-(4-chlorophenyl)prop-1-enyl)-1,2,6-trimethyl-2,3,4,9-tetrahydro-1H-pyrido[3,4-b]indole] | 0 | 52 | 92 |
| CCC1c2c(c3cc(Cl)ccc3n2C#Cc2ccc(F)cc2)CCN1C (stereo not drawn) [Compound 129] | -8 | 75 | 81 |
| C/C(=C\n1c2c(c3cc(Cl)ccc31)CCN(C)C2)c1ccc(Cl)cc1 [Compound 98, 6-chloro-9-(2-(4-chlorophenyl)prop-1-enyl)-2-methyl-2,3,4,9-tetrahydro-1H-pyrido[3,4-b]indole] | 32 | 74 | 87 |
| C/C(=C\n1c2c(c3cc(Cl)ccc31)CCN(C)C2C)c1ccc(Cl)cc1 (stereo not drawn) [Compound 99, 6-chloro-9-(2-(4-chlorophenyl)prop-1-enyl)-1,2-dimethyl-2,3,4,9-tetrahydro-1H-pyrido[3,4-b]indole] | -7 | 59 | 77 |
